Results taken from article PMC9775191, “A Subset Screen of the Compounds Australia Scaffold Library Identifies 7-Acylaminodibenzoxazepinones as Potent and Selective Hits for Anti-Giardia Drug Discovery” (Biomedicines, 2022).

Test system: G. duodenalis BRIS/91/HEPU/1279
Experiment: Primary Giardia screen at 10 µM (live-cell imaging, automated counting)
Type: cell-based, Giardia duodenalis
Conditions: for % Inhibition n=1 24h / % Inhibition n=1 48h: first singlicate assay; for % Inhibition n=2 24h / % Inhibition n=2 48h: re-assessment
Procedure, shortened: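 Percent growth versus 0.2% DMSO vehicle, background-corrected with media-only wells, is reported at 24 and 48 h from automated live-cell counts. Testing used 10 μM final in a 3% O2 atmosphere, with plate quality checked by Z' factor.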

Compound | % Inhibition n=1 48h [%] | other results
CCOC(=O)c1sc2ncnc(Nc3cn[nH]c3)c2c1C [SN00777183] | 42.7 | Average % Inhibition 24h: 0.0%; % Inhibition n=1 24h: 0.1%; % Inhibition n=2 24h: 0.0%; Average % Inhibition 48h: 30.8%; % Inhibition n=2 48h: 18.9%
COc1ccc(C(=O)N2c3ccccc3NC(=O)CC2C)cc1OC (stereo not shown) [SN00777269] | 0.0 | 
CCN(CC)S(=O)(=O)c1ccc(Nc2ccn(CCc3ccccn3)n2)c([N+](=O)[O-])c1 [SN00777378] | 39.2 | Average % Inhibition 24h: 10.7%; % Inhibition n=1 24h: 21.3%; % Inhibition n=2 24h: 0.0%; Average % Inhibition 48h: 25.2%; % Inhibition n=2 48h: 11.3%
COc1cccc(N2CCN(C(=O)c3ccc4noc(-c5ccccc5)c4c3)CC2)c1 [SN00777397] | 56.5 | Average % Inhibition 24h: 9.9%; % Inhibition n=1 24h: 17.2%; % Inhibition n=2 24h: 2.5%; Average % Inhibition 48h: 28.2%; % Inhibition n=2 48h: 0.0%
O=C(c1ccccc1)N1CCN(C(=O)c2ccc3noc(-c4ccccc4)c3c2)CC1 [SN00777400] | 15.8 | 
CC(=O)Nc1ccc(C(=O)OCc2cc(-c3cccs3)on2)s1 [SN00777515] | 14.0 | 
Cc1nnc(NC(=O)c2ccc3c(=O)n4c(nc3c2)CCCCCC4)s1 [SN00777547] | 37.7 | 
Cn1nc2c(c1NC(=O)c1cccc(NC(=O)C(C)(C)C)c1)CCC2 [SN00777576] | 0.0 | 
COC(=O)c1cc(C(=O)Nc2c3c(nn2C)CCC3)cc([N+](=O)[O-])c1 [SN00777586] | 12.1 | 
O=C(c1cc(C2CC2)nc2ccccc12)N1CC2CCC1C2 (stereo not shown) [SN00777604] | 18.4 | 
O=C(CN1C(=O)CC2(CCCCC2)C1=O)Nc1ccc([N+](=O)[O-])cc1 [SN00777618] | 47.2 | 
Cc1cc(C2CCCN2Cc2cc(-c3ccco3)on2)on1 (stereo not shown) [SN00777724] | 35.3 | 
CCC(=O)N1CCCC1C1CCCN1Cc1cn2c(C)cccc2n1 (stereo not shown) [SN00777763] | 16.6 | 
O=c1n(Cc2ccc(F)cc2)nnn1-c1ccccc1 [SN00777772] | 48.5 | 
O=C(NCCSc1ccc(Cl)cc1)c1cc(S(=O)(=O)N2CCOCC2)c[nH]1 [SN00777799] | 7.9 | 
Cc1cccc(OCC(=O)N2CCN(Cc3nnsc3Cl)CC2)c1C [SN00777844] | 35.2 | 
CCc1nc(CN2CCCN(C(=O)C3CCC3)CC2)cs1 [SN00777931] | 3.9 | 
Cc1onc(-c2ccccc2)c1-c1nnc(CN2CCCN(CC(=O)NC(C)(C)C)CC2)o1 [SN00777957] | 2.0 | 
O=C1C(=O)N(Cc2coc(-c3ccc(Cl)cc3)n2)C(=O)N1Cc1ccccc1 [SN00777999] | 18.6 | 
CCN1C(=O)C(=O)N(Cc2coc(-c3ccc(C)cc3)n2)C1=O [SN00778011] | 28.7 | 

Compound | % Inhibition n=1 48h [%] | other results
CCCNC(=O)CN1CCN(c2nc3ccccn3c2[N+](=O)[O-])CC1 [SN00778045] | 31.4 | 
Cn1cccc1C1CCCCCN1C(=O)CCSCc1nc2sc3c(c2c(=O)[nH]1)CCC3 (stereo not shown) [SN00778065] | 67.7 | Average % Inhibition 24h: 0.2%; % Inhibition n=1 24h: 0.0%; % Inhibition n=2 24h: 0.4%; Average % Inhibition 48h: 38.7%; % Inhibition n=2 48h: 9.8%
Cc1ccc(-c2nnn(CC(=O)N3CCCCCC3c3cccn3C)n2)cc1 (stereo not shown) [SN00778086] | 56.5 | Average % Inhibition 24h: 2.1%; % Inhibition n=1 24h: 0.0%; % Inhibition n=2 24h: 4.1%; Average % Inhibition 48h: 28.3%; % Inhibition n=2 48h: 0.0%
CCc1noc(C)c1C(=O)N1CCCN(Cc2csc(C)n2)CC1 [SN00778114] | 29.4 | 
Cc1ccc(S(=O)(=O)N2CCCN(C(=O)c3c[nH]nc3-c3ccc(F)cc3)CC2)cc1 [SN00778123] | 40.4 | 
CC(=O)N1CCCN(C(=O)c2cnn(C(C)(C)C)c2C)CC1 [SN00778131] | 0.0 | 
CC(=O)N1CCCN(C(=O)c2cc(C3CC3)[nH]n2)CC1 [SN00778148] | 1.1 | 
CCC1c2ccsc2CCN1C(=O)c1cc(-c2csc(C)n2)c[nH]1 (stereo not shown) [SN00778239] | 3.8 | 
CSc1ccc(-c2csc(CN3CCN(C(C)=O)CC3)n2)cc1 [SN00778360] | 12.1 | 
O=C(CN1C(=O)NC2(CCc3ccccc32)C1=O)N1CCCC(c2nnc3ccccn23)C1 (stereo not shown) [SN00778393] | 0.0 | 
c1cnc(N2CCCN(c3nc4ccccc4o3)CC2)nc1 [SN00778442] | 32.5 | 
Cc1nc(-c2ccccc2)c(C(=O)N2CCCN(S(=O)(=O)c3ccc(F)cc3)CC2)s1 [SN00778504] | 9.7 | 
CCn1cc(CN2CCCN(C(=O)c3cc(C4CC4)on3)CC2)cn1 [SN00778709] | 0.0 | 
Cc1ccc(-c2nc(C)sc2CC(=O)N2CCN(Cc3nc(N)c4ccccc4n3)CC2)cc1 [SN00778718] | 9.0 | 
c1ccc(-c2cc(CN3CCOC(Cn4cncn4)C3)on2)cc1 (stereo not shown) [SN00778747] | 6.8 | 
CN(C)C(=O)CN1CCCN(Cc2ncc(C(C)(C)C)o2)CC1 [SN00778763] | 1.9 | 
Cc1nc(CN2CCCNCC2)oc1C [SN00778765] | 0.0 | 
Cc1ccc(S(=O)(=O)C2(C(=O)Nc3cn[nH]c3)CCC2)cc1 [SN00778835] | 0.0 | 
Cc1nn(CCC(=O)Nc2cccc(F)c2)c(=O)c2noc(C)c12 [SN00778869] | 21.9 | Average % Inhibition 24h: 0.0%; % Inhibition n=1 24h: 0.0%; % Inhibition n=2 24h: 0.0%; Average % Inhibition 48h: 40.9%; % Inhibition n=2 48h: 59.9%
CCOC(=O)N1CCN(C(=O)c2nn(-c3ccccc3)c3c2CCC3)CC1 [SN00778954] | 38.8 | Average % Inhibition 24h: 6.2%; % Inhibition n=1 24h: 12.5%; % Inhibition n=2 24h: 0.0%; Average % Inhibition 48h: 36.1%; % Inhibition n=2 48h: 33.3%

Compound | % Inhibition n=1 48h [%] | other results
Cc1noc2ncc(C(=O)N3CCN(C(C)C)CC3)cc12 [SN00779057] | 0.0 | 
O=C1CC(C(=O)N2CCN(S(=O)(=O)c3ccc(Br)cc3)CC2)c2ccc(F)cc2N1 (stereo not shown) [SN00779129] | 0.0 | 
CCCn1c(=O)c2c(nc3n2CCN3c2ccc(CC)cc2)n(C)c1=O [SN00779194] | 0.0 | 
Cn1c(=O)n(CC(=O)C(C)(C)C)c(=O)c2c1nc1oc(C(C)(C)C)cn12 [SN00779257] | 18.6 | 
Cn1cc(C(=O)N2CCCC2C2CCCCC2)ccc1=O (stereo not shown) [SN00779264] | 13.1 | 
O=[N+]([O-])c1ncn(Cc2nc(-c3ccc(C(F)(F)F)cc3)no2)n1 [SN00779286] | 16.5 | 
O=C(Nc1cccnc1)C1=NN(Cc2ccccc2)C(=O)CC1 [SN00779378] | 15.0 | 
CN(C)c1ccc(NC(=O)C2=NN(Cc3ccc(F)cc3)C(=O)CC2)cc1 [SN00779392] | 8.0 | 
CSCCC(NS(=O)(=O)c1ccc(C)cc1)C(=O)Nc1nc(C)c(-c2ccccn2)s1 (stereo not shown) [SN00779415] | 0.0 | 
Cc1[nH]c(=O)sc1S(=O)(=O)N1CCN(c2ccccc2[N+](=O)[O-])CC1 [SN00779481] | 0.0 | 
O=C(Cc1csc(Cc2ccccn2)n1)Nc1ccc2nc(N3CCOCC3)sc2c1 [SN00779496] | 2.9 | 
CC(NC(=O)Cc1csc(Cc2ccccn2)n1)c1ccc(F)cc1 (stereo not shown) [SN00779507] | 0.0 | 
Cc1c(C(=O)N2CCOCC2C)nnn1-c1cccc2c1CCN(Cc1ccccc1)C2 (stereo not shown) [SN00779590] | 5.5 | 
CCc1nc(C)c2c(C)c(C(=O)N3CCN(c4ncccn4)CC3)sc2n1 [SN00779630] | 22.3 | 
CCc1nc(C)c2c(C)c(C(=O)N3CCN(Cc4ccc(OC)c(F)c4)CC3)sc2n1 [SN00779632] | 14.8 | 
O=S(=O)(c1ccc(Cl)cc1)N1CCC(c2nc(-c3c(Cl)cccc3Cl)no2)CC1 [SN00779695] | 11.2 | 
COc1cc(-c2noc(-c3cc(C4CC4)n[nH]3)n2)cc(OC)c1OC [SN00779739] | 13.7 | 
O=C(c1ccc2nncn2c1)N1CCc2[nH]nc(C(F)(F)F)c2C1 [SN00779777] | 3.6 | 
CCc1ncncc1C(=O)N1CCN(Cc2nc(C(C)C)no2)CC1 [SN00779817] | 26.6 | 
